# What was measured:
# [1] = Isomerization without enzyme (Example 3), maltose; details: remark (3): reaction time 6 h, initial pH 10.0-11.0
# [2] = Toxicity, LD50 on oral administration to rats; details: rat, in vivo, orally administered to rats
# From the text: (§1) The organogermanium compound used in the present invention has very low toxicity.
# [3] = Isomerization without enzyme (Example 3), mannose; details: remark (2): reaction time 6 h, initial pH 10.0-10.6
# [4] = Isomerization test at pH 10 (Example 4), arabinose; details: pH 10 with aqueous sodium hydroxide, 80° C., 3 hours; blank 2.75
# Method: (§2) The same isomerization test as in Example 2 was conducted with slight modifications.
# (§3) That is, 200 μl of one of various saccharide solutions and 200 μl of one of various organogermanium compound solutions were placed in a small test tube. The mixture was adjusted to pH 10 with an aqueous sodium hydroxide solution, after which the tube was placed in a water bath of 80° C. for a reaction. 3 hours later, the reaction was terminated and the amount of each saccharide isomerized was determined by high-performance liquid chromatography using 7A (a column) manufactured by Shimadzu Corp.
# [5] = Isomerization test at pH 10 (Example 4), mannose; details: pH 10 with aqueous sodium hydroxide, 80° C., 3 hours; blank 12.48
# Method: as §2, §3
# [6] = Isomerization without enzyme (Example 3), glucose; details: remark (1): initial pH 8.0-8.53
# Method: 200 μl of the 14% or 28% glucose solution and 200 μl of the organogermanium compound solution (pH 8.00 or 8.53) were placed in a small test tube. Also, 200 μl of the 14% or 28% glucose solution and 200 μl of the weakly alkaline electrolytic water were placed in a small test tube. Each test tube was thoroughly shaken and then placed in a water bath of 80° C. to give rise to a reaction. […] Thereafter, the mixture was diluted 100-fold with deionized water to determine the amount of formed fructose and the amount of residual glucose by high-performance liquid chromatography using 7A (a column) manufactured by Shimadzu Corp. […]
# [7] = Isomerization without enzyme (Example 3), arabinose; details: remark (2):, initial pH 10.0-10.6
# [8] = Isomerization test at pH 10 (Example 4), maltose; details: pH 10 with aqueous sodium hydroxide, 80° C., 3 hours; blank 12.59
# Method: as §2, §3
# [9] = Toxicity, LD50 on oral administration to mice; details: mouse, in vivo, orally administered to mice
# From the text: as §1
# glucose isomerase = assay: Enzymatic isomerization of glucose into fructose in presence of organogermanium compound (Example 1); format: biochemical, Streptomyces griseofuscus S-41; details: 60° C., pH 8.0, substrate solution 40% glucose and 1.2M organogermanium compound, blank 50%
# Method: A solution containing 40% glucose and 1.2M organogermanium compound was prepared according to the following procedure. 0.8 g of anhydrous glucose was dissolved in 0.8 ml of deionized water. To the solution was added, in small portions, 0.407 g of the organogermanium compound (1) as an isomerization accelerator of the present invention [a compound represented by formula (II) wherein n=1, R1 =R2 =R3 and X1 =OH] while the pH of the solution was maintained at very weak alkalinity, to completely dissolve the compound in the solution. Thereto was added 4.9 mg of magnesium sulfate, and the pH of the resulting mixture was adjusted to 8.0. Then, deionized water was added to make the total volume 2.0 ml, whereby a substrate solution was prepared.
# Two other substrate solutions containing the organogermanium compounds (18) [a compound represented by formula (II) wherein n=1, R1 =R2 =H, R3 =NH2 and X1 =OH] and (23) [a compound represented by formula (II) wherein n=1, R1 =H, R2 =C6 H5, R3 =NH2 and X1 =OH], respectively, were prepared in the same manner as above except that the organogermanium compounds (18) and (23) were used in amounts of 0.443 g and 0.638 g, respectively (these amounts corresponded to 1.2M of germanium).
# An isomerization enzyme (glucose isomerase) extracted from the cells of Streptomyces griseofuscus S-41 was purified according to a known method using an ion exchange column, a gel filtration column or the like, until a single band was obtained electrophoretically. The resulting purified enzyme was used as a standard enzyme.
# In a small test tube were placed 0.7 ml of the above substrate solution, 0.1 ml of a 200 mM MOPS buffer solution (pH 8.0) and 0.2 ml of a solution containing the above-prepared standard enzyme (5.69 mg/ml). […] The amount of formed fructose in the microvial was determined by high-performance liquid chromatography using a column [LC7A, SCR-101 (N) manufactured by Shimadzu Corp.] to examine the change with time, of ratio of isomerization of glucose into fructose.
# [10] = Isomerization test at pH 10 (Example 4), galactose; details: pH 10 with aqueous sodium hydroxide, 80° C., 3 hours; blank 7.60
# Method: as §2, §3
# [11] = Isomerization without enzyme (Example 3), lactose; details: remark (3): reaction time 6 h, initial pH 10.0-11.0
# [12] = Isomerization test at pH 10 (Example 4), xylose; details: pH 10 with aqueous sodium hydroxide, 80° C., 3 hours; blank 5.59
# Method: as §2, §3
# [13] = Isomerization without enzyme (Example 3), ribose; details: NaOH; remark (2): reaction time 6 h, initial pH 10.0-10.6; blank 3.9-19.5%
# [14] = Isomerization test at pH 10 (Example 4), ribose; details: pH 10 with aqueous sodium hydroxide, 80° C., 3 hours; blank 2.89
# Method: as §2, §3
# [15] = Isomerization without enzyme (Example 3), xylose; details: remark (2): reaction time 6 h, initial pH 10.0-10.6
# Method: [The procedure below names another target; the source says it served here with some conditions changed.] 200 μl of the 14% or 28% glucose solution and 200 μl of the organogermanium compound solution (pH 8.00 or 8.53) were placed in a small test tube. Also, 200 μl of the 14% or 28% glucose solution and 200 μl of the weakly alkaline electrolytic water were placed in a small test tube. Each test tube was thoroughly shaken and then placed in a water bath of 80° C. to give rise to a reaction. 1-3 hours later, 50 μl of the reaction mixture was added to 50 μl of 0.5N HClO4 to terminate the reaction. Thereafter, the mixture was diluted 100-fold with deionized water to determine the amount of formed fructose and the amount of residual glucose by high-performance liquid chromatography using 7A (a column) manufactured by Shimadzu Corp.
# Other compounds represented by formula (I) were subjected to 3-hour isomerization in the same manner as in Example 2.
# [16] = electrolytic water, blank 0-0.4%
# [17] = electrolytic water, blank 0.4-1.2%
structure (smiles),measurement,setting,value
O=C(O)C[CH2][Ge](=[O])[O][Ge](=[O])[CH2]CC(=O)O [Compound 1],Isomerization ratio Maltose NaOH,"[1]; NaOH, blank 34.0-38.6%",68.7%
same,Isomerization ratio Maltose Electrolytic water,[1]; [16],43.2%
same,LD50,[2],≥ 10000 mg/kg
same,Isomerization ratio Mannose NaOH,"[3]; NaOH, blank 3.9-19.5%",24.3%
same,Isomerization ratio Mannose Electrolytic water,[3]; [17],13.1%
same,Isomerization (%) Arabinose,[4],20.87%
same,Isomerization (%) Mannose,[5],37.23%
same,Isomerization ratio Glucose NaOH,"[6]; NaOH, blank 32.3%",98.9%
same,Isomerization ratio Glucose Electrolytic water,"[6]; electrolytic water, blank 2.1-3.1%",94.7%
same,Isomerization ratio Arabinose NaOH,"[7]; NaOH, blank 3.9-19.5%",22.6%
same,Isomerization ratio Arabinose Electrolytic water,[7]; [17],12.6%
same,Isomerization (%) Maltose,[8],78.91%
same,LD50,[9],≥ 6000 mg/kg
same,isomerization ratio in equilibrium,glucose isomerase,75%
same,Isomerization (%) Galactose,[10],38.67%
same,Isomerization ratio Lactose NaOH,"[11]; NaOH, blank 34.0-38.6%",70.3%
same,Isomerization ratio Lactose Electrolytic water,[11]; [16],58.3%
same,Isomerization (%) Xylose,[12],40.66%
same,Isomerization ratio Ribose NaOH,[13],44.7%
same,Isomerization (%) Ribose,[14],27.76%
same,Isomerization ratio Xylose NaOH,"[15]; NaOH, blank 3.9-19.5%",30.3%
same,Isomerization ratio Xylose Electrolytic water,[15]; [17],19.6%

# From US5679787A, “Process for isomerization of compound of aldose structure into compound of ketose structure, and isomerization agent or accelerator used therein” (priority 1992, dated 1997)
